Paper PMC11662161 (Neuro-Oncology Advances, 2024)
Values joined by “and” are separate entries in the source; they are usually repeats but may differ in a detail not shown here. Identical values can stand only once. Like-named read-outs stand apart in the source and are kept apart here.

Assays:
[1] = tested on: patients with recurrent HGG; assay: Phase II trial NCT01967810: neurocognitive function testing (HVLT-R, TMT A/B, COWA; reliable change index); format: in vivo, human; settings: for neurocognitive function stable or improved (RCI), across the battery of tests: end of treatment visit
Method: The end of treatment assessment was only performed if no neurocognitive assessment was done within 30 (± 3) days. Information regarding the patient’s demographic background was collected. Neurocognitive test administrators were trained and provided with a manual to ensure standardized test administration. Neurocognitive test results were evaluated and read centrally. Three domains of neurocognitive function were measured as exploratory endpoints in this study: memory, visuomotor scanning speed (eg, complex visual scanning with a motor component), and executive function (eg, mental flexibility). The neurocognitive battery included the following tests: Hopkins Verbal Learning Tests—Revised (HVLT-R Total Recall, Delayed Recall, Delayed Recognition), Trail Making Test Part A and Part B[18] (TMBTA, TMBTB), and Controlled Oral Word Association (COWA).[19] […]

[2] = tested on: brain metastases from breast tumors and other advanced solid tumors; settings: doses ≥ 420 mg/m^2, cited from earlier work
Text: (§1) The overall safety profile was favorable and consistent with the known side effect profile of unconjugated paclitaxel.

[3] = tested on: recurrent glioma tumors; settings: following a single intravenous infusion; cited from earlier work
Text: as §1

[4] = tested on: recurrent high-grade glioma (HGG); settings: ref Dmello et al., submitted to Neuro-Oncology Advances, cited from earlier work
Text: Variable response to paclitaxel between patients is a well-known phenomenon for several cancers, with ~50% of patients being susceptible to this drug as a monotherapy. We recently reported endoplasmic reticulum translocon complex protein SSR3 as a predictive biomarker for glioma and breast cancer susceptibility to this drug.[22] In a companion manuscript (Dmello et al., submitted to Neuro-Oncology Advances), we report an analysis of available tumor samples from this phase II trial (NCT01967810), where we evaluated the correlation with baseline SSR3 expression with OS on this cohort. This study ...

[5] = tested on: recurrent high-grade glioma (HGG); assay: Phase II trial NCT01967810: efficacy (RANO response, PFS, OS); format: in vivo, human; settings: for duration (of response) rate: identical at 3, 6 and 12 months
Text: The protocol was reviewed and approved by the institutional review board of each participating center. All patients gave written informed consent for trial participation. According to 2007 WHO classification used in this study, HGG included grade 3 AGs such as anaplastic astrocytomas (AAs), anaplastic oligodendrogliomas (AOs), and anaplastic oligoastrocytomas (AOAs), as well as grade 4 GBM.[16] […] Additionally, a Karnofsky Performance Scale (KPS) score ≥ 80, neurologic stability with patients receiving stable doses of corticosteroids and anticonvulsants, and normal hepatic, renal, and hematologic function with ≥ 3 months of expected survival were requirements for inclusion. In patients with gliomas refractory to bevacizumab, radiological confirmation of tumor progression during bevacizumab therapy was necessary.
Gadolinium-enhanced magnetic resonance imaging of the brain was used to evaluate disease extent beginning at baseline and continued every two treatment cycles (ie, every 6 ± 2 weeks) until disease progression or unacceptable treatment toxicity. […] The Response Assessment in Neuro-Oncology (RANO) was utilized for two-dimensional intracranial tumor assessment.[17]
The primary objectives of the study were to determine (1) the objective response rate (ORR) in bevacizumab-naïve recurrent GBM patients (Arm 1), (2) progression-free survival rate at 3 months (PFS3) in the bevacizumab-refractory recurrent GBM patients (Arm 2), and (3) ORR in recurrent AG patients (Arm 3). The arms were predefined. Bevacizumab was not continued in bevacizumab-refractory patients.
The secondary objectives of this study were to determine (1) the ORR in Arm 2; (2) number of patients without progression at 3, 6, and 12 months in Arms 1 and 3; (3) number of patients without progression at 6 and 12 months in Arm 2; (4) median progression-free survival in each arm; (5) median duration of response in each arm; (6) median overall survival (OS) in each arm; (7) safety and tolerability; and (8) plasma pharmacokinetic profile.
ORR was defined as the proportion of patients with a CR or PR. The assessment was made according to RANO criteria based on the investigator’s assessment.[17] The ORR was the primary endpoint for Arms 1 and 3 and a secondary endpoint for Arm 2. ORR for each arm was calculated, and a 2-sided 95% confidence interval was provided using the exact method based on the binomial distribution. PFS was defined as the time from study enrollment to documented disease progression as determined by the local investigator, clear clinical progression in the absence of a brain MRI determination of progression, or death from any cause, whichever occurred first. PFS was the primary endpoint for Arm 2 and a secondary endpoint for Arms 1 and 3. Patients with a clinical determination of progression underwent an MRI assessment. If a clinical determination of progression for a patient was confirmed by an MRI, the date of the MRI was considered as the progression date for that patient. The data for patients who were still alive and free from disease progression at the time of data cutoff were administratively censored on the last assessment (or, if no post-baseline tumor assessment, at the time of first dose plus 1 day). Data for patients who were lost to follow-up prior to documented disease progression were censored at the last disease assessment date when the patient was known to be disease progression-free. Kaplan–Meier methodology was used to estimate the 3-month PFS rate, and 95% confidence intervals for PFS rate were computed using Greenwood’s formula by arms. In addition, the median PFS was calculated for each arm.

[6] = tested on: patients with recurrent HGG; assay: Phase II trial NCT01967810: safety and tolerability (adverse events, NCI CTCAE v4.0; treatment discontinuation)
Method: Subsequently, a total of 69 patients were enrolled at 600 mg/m^2 as a starting dose. Dose reductions or delays were allowed if toxicity was observed. Patients were monitored for a minimum of 1 h after the completion of each infusion.
Dose reductions were mandatory for all patients who experienced any (life-threatening) Grade 4 toxicity, and for selected Grade 3 toxicities, such as Grade 3 pneumonitis, Grade 3 peripheral neuropathy or CNS toxicity, or Grade 3 cardiac adverse events (AEs).
Evaluation of safety included the analysis of AEs and the analysis of laboratory and vital signs data using the safety population. Verbatim descriptions of AEs were mapped according to the Medical Dictionary for Regulatory Activities (MedDRA) v17.0 or later thesaurus terms and graded according to the NCI CTCAE v4.0. […] Laboratory data was analyzed with shift tables and summaries of change from baseline to maximum post-treatment value based on local lab normal ranges. Change from baseline in vital signs were summarized. Neurocognitive function test data was analyzed by descriptive statistics (mean, SD and median) and change in neurocognitive function from baseline to each follow-up time point was categorized as improved, stable, or declined based on the reliable change index (RCI) for each test.

[7] = % of patients, N = 73, all arms
[8] = % of patients, N = 73, table cell prints n (%)

What does the source list for paclitaxel trevatide [ANG1005]?
neurocognitive function stable or improved (RCI), across the battery of tests ([1]; % of patients, Arm 1 (n = 5)): 40–100%; CTB composite score: decline in neurocognitive function ([1]; % of patients, Arm 1, EOT): 40%; CTB composite score: stable neurocognitive function ([1]; % of patients, Arm 1, EOT): 60%; neurocognitive function stable or improved (RCI), across the battery of tests ([1]; % of patients, Arm 2 (n = 4)): 50–75%; CTB composite score: decline in neurocognitive function ([1]; % of patients, Arm 2, EOT): 50%; CTB composite score: stable neurocognitive function ([1]; % of patients, Arm 2, EOT): 50%; neurocognitive function stable or improved (RCI), across the battery of tests ([1]; % of patients, Arm 3 (n = 13)): 69–100%; CTB composite score: decline in neurocognitive function ([1]; % of patients, Arm 3, EOT): 25%; CTB composite score: improved neurocognitive function ([1]; % of patients, Arm 3, EOT): 8%; CTB composite score: stable neurocognitive function ([1]; % of patients, Arm 3, EOT): 67%; CTB composite score: improved neurocognitive function ([1]; Arm 1, EOT): no patients; CTB composite score: improved neurocognitive function ([1]; Arm 2, EOT): no patients; overall PR, non-CNS peripheral metastases response ([2]; 4/16 patients): 25%; overall partial response (PR), CNS response ([2]; 4/18 patients): 22%; stable disease (SD), CNS response ([2]; 10/18 patients): 56%; transport across the BBB and tumor penetration [3]: tumor penetration at therapeutic concentrations; median OS ([4]; patients with high SSR3 expression, 95% CI 14.59, NA, P = .2 vs low): 18 months; median OS ([4]; patients with low SSR3 expression, 95% CI 5.41, NA): 9 months; PFS rate ([5]; 3 months, Arm 1, 95% CI: 12.2, 56.4): 33.3%; PFS rate ([5]; 3 months, Arm 3, 95% CI: 18.9, 53.0): 35.7%; median duration of response ([5]; 3 responders (2 in Arm 1, 1 in Arm 3), 95% CI: 2.1, NA): 13.4 months; PFS rate ([5]; 6 months, Arm 1, 95% CI: 8.3, 49.6): 26.7%; PFS rate ([5]; 6 months, Arm 3, 95% CI: 18.9, 53.0): 35.7%; PFS rate ([5]; 12 months, Arm 1, 95% CI: 2.2, 34.6): 13.3%; PFS rate ([5]; 12 months, Arm 3, 95% CI: 11.8, 44.4): 26.8%; clinical benefit rate (SD or better) ([5]; Arm 1, mITT): 46.6%; progressive disease ([5]; Arm 1, mITT, 8 subjects): 53.3%; median OS ([5]; Arm 1, mITT, 95% CI: 3.4, 14.6): 13.4 months; median OS ([5]; Arm 1, safety population, 95% CI: 3.06, 13.67): 6.74 months; median duration of response ([5]; Arm 1, 95% CI: 2.1, 13.4): 7.75 months; duration (of response) rate ([5]; Arm 1, 95% CI: 0.6, 91.0): 50.0%; responders (CR or PR) ([5]; Arm 2 (bevacizumab-refractory GBM), mITT, secondary endpoint): none; PFS rates ([5]; Arm 2, at each time point (3, 6, 12 months), PFS3 is the primary endpoint): 0; clinical benefit rate (SD or better) ([5]; Arm 2, mITT): 22.2%; subjects who progressed or died ([5]; Arm 2, mITT): All subjects; progressive disease ([5]; Arm 2, mITT, 7 subjects): 77.8%; median OS ([5]; Arm 2, mITT, 95% CI: 1.9, 9.7): 5.8 months; median OS ([5]; Arm 2, safety population, 95% CI: 1.94, 6.67): 3.02 months; median duration of response ([5]; Arm 3): not reached; clinical benefit rate (SD or better) ([5]; Arm 3, mITT): 53.6%; progressive disease ([5]; Arm 3, mITT, 13 subjects): 46.4%; median OS ([5]; Arm 3, mITT, 95% CI: 10.7, 35.3): 18.2 months; median OS ([5]; Arm 3, safety population, 95% CI: 8.67, 21.95): 16.03 months; duration (of response) rate ([5]; Arm 3, 95% CI: 100,100): 100%; overall median PFS ([5]; across all 3 arms, mITT, investigator-assessed, 95% CI: 1.4, 2.1): 1.4 months; overall ORR (CR or PR, RANO, investigator) ([5]; mITT n = 52, all arms, 3 subjects, 95% CI: 1.2, 15.9): 5.8%; subjects who progressed or died ([5]; mITT n = 52, 47 subjects): 90.4%; overall median OS ([5]; mITT population n = 52, 95% CI: 7.03, 14.78): 12.94 months; progressive disease ([5]; overall, mITT n = 52, 28 subjects): 53.8%; duration (of response) rate ([5]; overall, 95% CI: 5.4, 94.5): 66.7%; overall median OS ([5]; safety population n = 73, 95% CI: 6.34, 12.94): 8.67 months; most common AEs: alopecia [6, 7]: 31.5% and 32%; most common AEs: fatigue [6, 7]: 30.1% and 30%; most common AEs: hematologic [6, 7]: 32.9%; most commonly reported AEs: neutropenia [6, 7]: 33%; patients with a Grade 5 SAE ([6]; % of patients, N = 73, 3 patients): 4.1%; patients with a Grade 4 SAE ([6]; % of patients, N = 73, 9 patients): 12.3%; patients with a Grade 3 SAE ([6]; % of patients, N = 73, 19 patients): 26.0%; related AEs by SOC: gastrointestinal disorders ([6]; % of patients, N = 73, 34 patients): 46.6%; related AEs by SOC: skin and subcutaneous tissue disorders ([6]; % of patients, N = 73, 35 patients): 47.9%; related AEs by SOC: blood and lymphatic system disorders ([6]; % of patients, N = 73, 37 patients): 50.7%; related AEs by SOC: general disorders and administration site reactions ([6]; % of patients, N = 73, 42 patients): 57.5%; AEs: skin and subcutaneous disorders ([6]; % of patients, N = 73, 44 patients): 60.3%; AEs: gastrointestinal disorders ([6]; % of patients, N = 73, 45 patients): 61.6%; AEs: general disorders and administration site reactions ([6]; % of patients, N = 73, 50 patients): 68.5%; AEs: nervous system disorders including peripheral neuropathy ([6]; % of patients, N = 73, 57 patients): 78.1%; SAEs related to ANG1005: patients reporting at least one related SAE [6, 8]: 28.8%; SAEs: patients reporting at least one event [6, 8]: 45.2%; treatment discontinued due to AEs ([6]; % of subjects, N = 73, 7 subjects): 9.6%; number of AEs that led to death ([6]; Arm 3 (hydrocephalus)): one; patients who experienced at least one AE ([6]; N = 73, all arms): All patients; number of AEs that led to death ([6]; all arms, N = 73, only septic shock considered potentially related to ANG1005): 3
